Results as given in publication PMC10877774, “Development of an UPLC-MS/MS method for quantitative analysis of abexinostat levels in rat plasma and application of pharmacokinetics” (BMC Chemistry, 2024).

Columns and labels:
[1] = parameters: method as in PMID 27911138; conditions: cited from earlier work
[2] = Stability of abexinostat in rat plasma under different storage and handling conditions; format: in vitro ADME; conditions: for stability (in words) / stability of plasma samples (in words): RE within ± 15% considered stable; for Stability RE (%): n = 5
Description: For the preparation of control and standard curves, we dissolved abexinostat and IS in methanol at a concentration of 1.00 mg/mL. Both the abexinostat working solution and the 100 ng/mL IS working solution were diluted with methanol from their respective stock solutions. The corresponding working solution (10 μL) was diluted tenfold and operated by adding rat blank plasma (90 μL) to obtain a calibration curve with a concentration range of 2.00–100 ng/mL. The concentrations at each point in the standard curve were set to 2.00, 5.00, 10, 20, 50, 100 ng/mL, respectively. Final concentrations of QC samples were 2.00 (lower limit of quantitation, LLOQ), 5.00 (low quality control, LQC), 40 (median quality control, MQC), and 80 (high quality control, HQC) ng/mL.
The principles of the analytical methods in this study were performed in accordance with the FDA’s “Guidance for Industry: Bioanalytical Method Validation” [14], including calibration curves, selectivity, LLOQ, recovery, matrix effects, precision and accuracy, and stability.
Stability experiments to test abexinostat in plasma under different storage and handling conditions were done to investigate whether abexinostat was still stable in rat plasma. The stability test results were in Table 3. […] Furthermore, the assay remained stable in the autosampler (10 °C) for 4 h and 3 h at room temperature. Relative errors (RE) within ± 15% were considered stable by data comparison.

[3] = Pharmacokinetic study in rats after single gavage dose, plasma levels by UPLC-MS/MS; format: in vivo, Sprague–Dawley Rats
Description: Quantitative analysis was performed using a UPLC-MS/MS system consisting of a Waters Xevo TQ-S triple quadrupole tandem mass spectrometer and a Waters ACQUITY UPLC I-Class system (Milford, MA, USA) used in this experiment. Accurate molecular weight calculations were achieved using an electrospray ionization (ESI) source (Milford, MA, USA) with ultra-high sensitivity. The system was chromatographed on an Acquity BEH C18 column (2.1 mm × 50 mm, 1.7 μm; Milford, MA, USA) at 40 °C with acetonitrile and 0.1% formic acid as mobile phases. Gradient elution was as follows: 0 − 0.5 min (acetonitrile, 10%) and 0.5–1.0 min (acetonitrile, 10–90%), 1.0–1.4 min (acetonitrile, 90%) and 1.4–1.5 min (acetonitrile, 90–10%) at 0.40 mL/min. Finally, the mobile phase was maintained 10% acetonitrile between 1.5 and 2.0 min for equilibration. A 2.0 μL sample was drawn from each vial as the injection volume, and the entire analysis process time was 2.0 min. In UPLC-MS/MS, we used positive ion mode to detect abexinostat and IS with ion transition of m/z 397.93 → 200.19 and 422.01 → 186.11, respectively. 25 eV and 30 V were the collision energy and cone voltage for both.
Plasma protein composition interfered with detection sensitivity. The protein precipitation method in this study was to add acetonitrile to the plasma, and the protein was fully precipitated and then centrifuged. We added 100 μL of the plasma sample along with 10 μL of the IS working solution (concentration of 100 ng/mL) in an Eppendorf (EP) tube. Mixing well and adding acetonitrile at a ratio of 1:3 to precipitate the protein in the EP tube, and centrifuged at 13,000 rpm for 10 min at 4 °C. 100 μL of the supernatant was transferred to an autosampler vial for quantitative analysis by the UPLC-MS/MS system.
Sprague–Dawley Rats Were Provided By The First Affiliated Hospital Of Wenzhou Medical University (Zhejiang, China), And The Animal Study Was Reviewed And Approved By Ethics Committee Of The First Affiliated Hospital of Wenzhou Medical University (WYYY-IACUC-AEC-2023-055). All rats were fasted for 24 h before the experimental animals, and a single gavage dose of 8.00 mg/kg of abexinostat was administered to 6 rats after fasting. At 20 and 40 min, 1, 1.5, 2, 3, 4, 6, 8, 12, 24, and 48 h after gavage, 300 μL of whole blood was collected from the tail vein of the rat and put into heparinized tubes. Then, the blood sample was centrifuged at 8000 rpm for 5 min. 100 μL of plasma was obtained and frozen at − 80 °C for further processing and analysis.
The main parameters of pharmacokinetics were analyzed by Drug and Statistics (DAS, Version 3.0 software, Shanghai University of Traditional Chinese Medicine, China).

[4] = parameters: method as in PMID 26482040; conditions: 60 mg/m^2 group; grade 5 acute renal failure, grade 3 long-term diarrhea; cited from earlier work
[5] = parameters: method as in PMID 28126962; conditions: patients with follicular lymphoma, T-cell lymphoma, diffuse large B-cell lymphoma, phase II; cited from earlier work
[6] = patients, most common grade 3 treatment-related adverse events
[7] = Sprague-Dawley, po, rat plasma, intragastric single dose 8.00 mg/kg, n = 6, Mean ± SD

CN(C)Cc1c(C(=O)NCCOc2ccc(C(=O)NO)cc2)oc2ccccc12 [Abexinostat]
evaluable patients with stable disease ([1]; Phase I, various types of leukemia): 1 out of 12 | grade 3 treatment-related adverse event: neutropenia [1, 6]: 24% | grade 3 treatment-related adverse event: thrombocytopenia [1, 6]: 29% | stability (in words) ([2]; 3 h at room temperature): stable | Stability RE (%) ([2]; Autosampler 10 ℃, 4 h, 40 ng/mL): 15.0% | stability (in words) ([2]; autosampler (10 °C) for 4 h): stable | Stability RE (%) ([2]; plasma, Room temperature, 3 h, 40 ng/mL): 2.2% | Stability RE (%) ([2]; plasma, Room temperature, 3 h, 80 ng/mL): 0.2% | Stability RE (%) ([2]; plasma, Three freeze–thaw (− 80 °C/room temperature), 80 ng/mL): 13.8% | Stability RE (%) ([2]; plasma, − 80 ℃, 3 weeks, 5.00 ng/mL): 5.4% | Stability RE (%) ([2]; plasma, − 80 ℃, 3 weeks, 40 ng/mL): 3.3% | stability of plasma samples (in words) ([2]; three cycles of full freezing (− 80 °C)/thawing (room temperature)): stable | stability of plasma samples (in words) ([2]; − 80 °C for at least 3 weeks): stable | AUC(0-inf) [3, 7]: 501 ± 40.1 ng·h/mL | AUC(0-t) [3, 7]: 461 ± 38.9 ng·h/mL | Cmax [3, 7]: 28.2 ± 7.67 ng/mL | half-life [3, 7]: 13.8 ± 2.5 h | CL/F ([3]; Sprague-Dawley, po, rat plasma, intragastric single dose 8.00 mg/kg, n = 6, Mean ± SD, read-out: CLz/F (converted)): 267 mL/min/kg | MRT last ([3]; Sprague-Dawley, po, rat plasma, intragastric single dose 8.00 mg/kg, n = 6, Mean ± SD, read-out: MRT0-t): 14.8 ± 0.8 h | MRT inf ([3]; Sprague-Dawley, po, rat plasma, intragastric single dose 8.00 mg/kg, n = 6, Mean ± SD, read-out: MRT0-∞): 19.1 ± 2.55 h | Tmax ([3]; Sprague-Dawley, rat, plasma, po, 8 mg/kg, rat plasma, intragastric single dose 8.00 mg/kg, n = 6, Mean ± SD): ~1.39 h | time at which plasma concentration peaks, estimated from Fig. 3 ([3]; rats, oral administration 8.00 mg/kg, mean concentration–time curve): around 1 h | patients with dose-limited toxicities (DLTs) [4]: 2/8 | tumor control (in words) [5]: durable tumor control
